These results are taken from patent US20050003546A1, “Viral uptake into cells and tissues” (Yale University, priority 2001, published 2005).

The test system of one test is COS-7 cells. Kind of test: Ad-GFP adenovirus infection of COS-7 cells (Western blot, fluorescence microscopy, flow cytometry). The class given is cell-based. How it is done:
(§1) Adenoviruses (1 m.o.i. or approximately 1×10^6 pfu per 60 mm dish) were pre-complexed with the peptides (0.05 to 5 mM) in 100 μl of serum free media (OptiMEM; Gibco, Grand Island, N.Y.) for 30 min at room temperature. Cells (COS-7 or BAEC) were grown on 60 mm dishes until 90% confluent and media was changed to serum free (2 ml) before exposure to the adenovirus complex. The complex (100 μl) was added to the cells for 4 hrs and then the cells were washed and changed to complete growth media for 24 to 48 hours.
(§2) Western blotting was performed as described previously (16). Briefly, cells were lysed (50 mM Tris-HCl, 0.1 mM EDTA, 0.1 mM EGTA, 1% (v/v) Nonidet P-40, 0.1% SDS, 0.1% deoxycholic acid, 1 mM Pefabloc, 10 μg/ml aprotinin, and 10 μg/ml leupeptin) for 1 hr at 4° C. and the soluble material was separated on a 10% SDS-PAGE, and transferred to a nitrocellulose membrane. Blocked membranes were probed using the specific polyclonal anti-GFP (Clontech, Palo Alto, Calif.) or the monoclonal anti-hsp90(Stressgen, Victoria, Canada) antibodies. After washing and incubating with secondary antibodies, immunoreactive proteins were visualized by ECL detection system (Amersham, Buckinghamshire, UK).
Live cells infected with Ad-GFP were washed with serum free media and visualized using a Zeiss Axiovert 200 microscope under phase contrast or GFP filters (excitation 450 nm, emission 510 nm). Images were captured using the Openlab Imaging software (Improvision, Lexington, Mass.). Flow cytometric analysis of GFP expressing cells was performed 48 h after following infection. Cells were trypsinized, PBS washed and fixed in 70% ethanol at 4° C. Cells were resuspended in PBS and were analyzed by gating for GFP fluorescence by flow cytometry using a FACSort (Becton Dickinson, San Jose, Calif.).
For orientation: Immunoblotting shows a protein as a band on a membrane.

The test system of test [1] is bovine aortic endothelial cells (BAEC). Kind of test: Ad-GFP adenovirus infection of bovine aortic endothelial cells (Western blot). The class given is cell-based. The conditions noted are these: AP/Ad-GFP complex. The protocol: as §1, §2
For test [2], the system named is human umbilical vascular endothelial cells (HUVEC). Kind of test: Ret-GFP retrovirus infection of HUVEC (Western blot, fluorescence microscopy). The test is classed as cell-based. How it is done: For retroviral infections supernatant from phoenix retroviral packaging cell line expressing […] was incubated for 30 min at 37 C in presence of AP (0.1-0.5 mM). HUVEC cells were exposed to the mixture for 24 hrs and then harvested.
as §2
Live cells infected with Ad-GFP were washed with serum free media and visualized using a Zeiss Axiovert 200 microscope under phase contrast or GFP filters (excitation 450 nm, emission 510 nm). Images were captured using the Openlab Imaging software (Improvision, Lexington, Mass.). […] Cells were resuspended in PBS and were analyzed by gating for GFP fluorescence by flow cytometry using a FACSort (Becton Dickinson, San Jose, Calif.).

The test system of test [3] is mouse carotid artery endothelium. The test can be described thus: Endothelium specific gene transfer of mouse carotid arteries ex vivo (Ad-GFP, Ad-β-gal). The protocol: (§3) The common carotid artery was cannulated, flushed with a small amount (˜3 μl) of virus and tied off proximally. Approximately 3 μl of Ad-β-gal (1×10^9 pfu/ml), Ad-GFP (1×10^9 pfu/ml), Ad-eNOS (5×10^10 pfu/ml) virus or virus complexed with AP (10 μM) for 30 min at room temperature was injected. The virus-filled vessel was incubated in situ at 37° C. for 2 hours and then rinsed in saline prior to overnight (18 hours) incubation in complete DMEM at 37° C., 5% CO2. Control vessels were filled with viral storage buffer and treated in an identical manner.
(§4) -galactosidase expression was monitored by either X-Gal staining or activity 4 days after virus administration as described previously (14,18).

The next test deals with adductor muscle. The test can be described thus: Intramuscular Ad-β-gal reporter virus injection into mouse adductor muscle. The test is classed as in vivo. The conditions noted are these: Ad-β-gal 5×10^7 pfU in 25 μl, three sites, pre-complexed with AP 10 μM. The protocol: as §4
(§5) Ischemic hind limb model was performed as described previously (19). Briefly, following anesthesia, the left femoral artery was exposed under a dissection microscope. The proximal end of the femoral artery and the distal portion of the saphenous artery were ligated. All branches between these two sites were cauterized, and arteriectomy was performed. Following arteriectomy, 25 μl of either virus storage buffer, Ad-VEGF (5.5×10^7 pfu), Ad- -ga l (2.5×10^7 pfu), pre-complexed with AP (30 min room temperature; 10 μM) or AP alone (at least 5 animals per group) was injected into the adductor muscle at 3 different sites. Mice were sacrificed 21 days following surgery and muscles of the lower limbs were harvested, methanol fixed and paraffm embedded. Tissue sections (5 μm thick) were stained using an anti-CD31 antibody (Pharmingen, San Diego, Calif.), and hematoxylin counter stained. Pictures from 4 random areas of each section, and 3 sections per mice were taken using a Kodak digital camera mounted on a light microscope (40× objective). Capillary density was quantified by measuring the percentage of CD31 positive area out of total area using the Matlab software (The Math Works, Inc.).

Test [4] deals with carotid arteries from eNOS -/- mice. The test can be described thus: Isometric studies: acetylcholine-induced relaxation of eNOS -/- carotid arteries transduced with Ad-eNOS. Also noted: species or system mouse. The conditions noted are these: carotid arteries of eNOS (-/-) mice luminally transduced with Ad-eNOS, without or pre-complexed with AP. How it is done:
as §3
Rings of carotid artery were studied as described previously (17). To assess endothelial function, vessels were precontracted with a submaximal (˜80%) concentration of PGF2α (5×10^−6 mol/L) prior to application of endothelium-dependent dilator acetylcholine (10^−10−3×10^−6 mol/L).

The subject of test [5] is bovine aortic endothelial cells (BAEC). Kind of test: Nitric oxide release from BAEC infected with Ad-eNOS or Ad-GFP. The class given is cell-based. The protocol:
as §1
Basal NO2^− release from BAEC, a stable metabolite of NO, was assessed in the medium as described (9). In all experiments, release was attenuated by a NOS inhibitor.

Test [6] concerns vascular permeability in mouse ear. The test can be described thus: Permeability assay: Evans blue leakage in mouse ear after intradermal Ad-VEGF. The test is classed as in vivo. How it is done: Ad-VEGF (5.5×10^7 pfu) or Ad-β-gal (2.5×10^7 pfu) with or without AP complex (10 μM; 30 minutes at room temperature) was injected intradermally into the ear of CD1 mouse. Evans blue leakage was monitored 4 days after infection as described previously (9).

Test [7] has as its system blood vessels of the lower limbs (PECAM/CD31 positive area). The test can be described thus: Ischemic hind limb angiogenesis assay with intramuscular Ad-VEGF. The test is classed as in vivo, mouse. The conditions noted are these: intramuscular Ad-VEGF 5.5×10^7 pfu in presence of AP, hind limb ischemia. How it is done: as §5

A value given as a limit tells only on which side of the number the result lay.

On to RQIKIWFQNRRMKWKK [AP], for which, in the test with COS-7 cells (AP 0.05 to 5.0 mM pre-incubated 30 min with Ad-GFP 1 m.o.i., diluted 20 fold into medium, COS-7), the “expression of GFP (western blotting)” value was “dose-dependently improved”. Moreover, in the test with COS-7 cells (Ad-GFP 1 m.o.i. pre-complexed with AP vs Ad-GFP alone, COS-7), the “increase in cells strongly positive for GFP (M2), flow cytometry” value is roughly 10 fold. Besides, the “numbers of GFP positive cells (fluorescent microscopy) compared to virus alone” value in the test with COS-7 cells (Ad-GFP pre-incubated with 0.5 mM AP, COS-7) was “increased numbers”. In addition, the “GFP expression when cells exposed to AP prior to or after Ad-GFP infection (no pre-complex step)” value with COS-7 cells (COS-7, Ad-GFP) is listed as “did not yield an increase”. Further, the “GFP expression levels (western blotting) compared to Ad-GFP alone” value in test [1] is recorded as “marked increase”. Also, in test [2] (AP 0.05-0.5 mM added to Ret-GFP viral supernatant (approximately 10^6-10^7 pfu/ml)), the “GFP expression (western blot)” value is on record as “dose-dependently enhanced”. Also, the “GFP positive cells (fluorescence microscopy)” value in [2] (AP/Ret-GFP complex) is listed as “substantial increase”. The “infectivity of the Ad-GFP virus (en face fluorescence imaging)” value in [3] (Ad-GFP 10^9 pfu/ml pre-complexed with AP 10 μM, luminal, ex vivo) is listed as “markedly improved”. For the same sequence, the “X-Gal staining in the endothelial cell layer (tissue cross section)” value in test [3] (Ad-β-gal 10^9 pfu/ml, AP pre-treatment, ex vivo) is listed as “increased staining”. Also, the “β-galactosidase activity increase over Ad-β-gal infection alone” value in test [3] (carotid arteries treated with AP/Ad-β-gal complex) was “two”. Moreover, in the test on adductor muscle, the “staining for β-galactosidase activity in adductor muscle” value is on record as “increased”. The “endothelium dependent dilation in response to acetylcholine (Ach)” value in test [4] is given as “improved”. Moreover, the “Ad-eNOS mediated NO release from cultured endothelial cells” value in [5] (1 m.o.i. of eNOS virus in absence or presence of AP) is reported as “improves”. The “NO release with control virus Ad-GFP” value in test [5] (Ad-GFP 1 m.o.i. in absence or presence of AP) is reported as “does not influence”. Further, the “increase of basal vascular permeability over Ad-VEGF alone” value in test [6] (AP complexed with Ad-VEGF, mouse ear) is reported as 2.5 fold. Further, the “ability of VEGF to promote vascular leak (extravasation of Evans blue)” value in [6] (Ad-VEGF 5.5×10^7 pfu with AP, intradermal, 4 days) is given as “significantly enhanced”. Also, the “PECAM positive vessels compared to Ad-VEGF alone” value in [7] is greater than 4 fold.

Take “GRKKRRQRRRPPQ (Human immunodeficiency virus) [Tat peptide, synthetic peptide, HIV Tat amino acids 48-60]”: in the test on COS-7 cells (Tat peptide 0.1 and 0.5 mM, COS-7), the “increasing Ad-GFP infection (GFP western blot), compared with AP” value was “as efficient as AP”.
